Results on 9 molecules are retold here after patent publication US10538497B2, “Compounds as indoleamine 2,3-dioxygenase inhibitors” (Merck Sharp & Dohme Corp., priority 2015, dated 2020).

Assay [1] concerns the target T1, IDO1 (Homo sapiens (Human), UniProt P14902). Nature of the assay: IDO1 Cellular Assay in Hela Cells Stimulated with IFNγ. The format is cell-based. The settings on record: Hela cells stimulated with IFNγ 100 ng/mL; read-out: IDO1 HELA Cell Assay, IC50. Here is the method:
IDO1 Cellular Assay in Hela Cells Stimulated with IFNγ
Hela cells were cultured in complete Hela culture medium (90% EMEM, 10% heat-inactivated fetal bovine serum) and expanded to about 1×10^9 cells. The cells were then collected and frozen down at 10×10^6 cells/vial in 1 mL frozen medium (90% complete Hela culture medium, 10% DMSO)
Frozen Hela cells were thawed and transferred into Hela assay medium (99% complete Hela culture medium, 1% Pen/Strep) with 20 mL medium/vial of cells. The cells were spun down at 250 g in a table top centrifuge for 5 min and suspended in same volume of Hela assay medium. The cells were then counted and adjusted to a density of 2×10^5 cells/ml in Hela assay medium. Sterile L-tryptophan were added to the cells with final concentration of 300 uM L-tryptophan. A small aliquot (2 mL/plate) of Hela cells were set aside and were not treated with IFNγ, to serve as the Max-E control. The rest of Hela cells were added with sterile IFNγ (Cat #285-IF, R & D systems) with a final concentration of 100 ng/mL.
Hela cells with and without IFNγ were dispensed to the respective wells of 384-well assay plates containing the compounds. The plates were incubated for about 48 hours at a 37° C., 5% CO2 incubator. […] The plates were centrifuged for 1 min at 200×g. The resulting fluorescence was measured in a Spectramax plate reader (Molecular Devices) with a 400 nm excitation filter and a 510 nm emission filter.

The target of assay [2] is T1, IDO1. Kind of assay: IDO1 Enzyme Assay. The note with it: read-out: IDO1 Enzyme Assay, IC50; HIS-tagged recombinant IDO1, 40 nM.

pIC50: −log10 of the molar value.

T1 sequence (P14902 whole entry): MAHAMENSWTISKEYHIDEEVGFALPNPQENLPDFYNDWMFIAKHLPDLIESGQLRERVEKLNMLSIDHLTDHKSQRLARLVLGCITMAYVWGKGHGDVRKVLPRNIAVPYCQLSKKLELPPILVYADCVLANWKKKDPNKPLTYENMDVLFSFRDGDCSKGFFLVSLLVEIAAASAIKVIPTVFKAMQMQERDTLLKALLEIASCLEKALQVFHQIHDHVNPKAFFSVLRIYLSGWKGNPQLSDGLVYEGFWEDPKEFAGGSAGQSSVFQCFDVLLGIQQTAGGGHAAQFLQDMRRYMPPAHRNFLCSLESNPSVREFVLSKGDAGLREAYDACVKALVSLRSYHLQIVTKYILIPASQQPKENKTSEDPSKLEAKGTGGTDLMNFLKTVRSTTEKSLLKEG

As to `C[C@@H](O)CNC(=O)CSc1nonc1/C(=N/O)Nc1ccc(F)c(Br)c1` [Example 201, (R)-2-((4-(N-(3-bromo-4-fluorophenyl)-N′-hydroxycarbamimidoyl)-1,2,5-oxadiazol-3-yl)thio)-N-(2-hydroxypropyl)acetamide], the pIC50 in assay [1] is 7.57; in assay [2], 7.65.

Take `O=C(CSc1nonc1/C(=N/O)Nc1ccc(F)c(Br)c1)NC1(CO)CC1` [Example 202, 2-((4-(N-(3-bromo-4-fluorophenyl)-N′-hydroxycarbamimidoyl)-1,2,5-oxadiazol-3-yl)thio)-N-(1-(hydroxymethyl)cyclopropyl) acetamide]: the pIC50 in assay [1] is 7.91; in assay [2], 7.69.

Regarding `C[C@H](O)CNC(=O)CSc1nonc1/C(=N/O)Nc1ccc(F)c(Br)c1` [Example 203, (S)-2-((4-(N-(3-bromo-4-fluorophenyl)-N′-hydroxycarbamimidoyl)-1,2,5-oxadiazol-3-yl)thio)-N-(2-hydroxypropyl)acetamide], the negative logarithm of the IC50 (pIC50) in assay [1] is 7.94; in assay [2], 7.84.

As to `CC(C)(Sc1nonc1/C(=N/O)Nc1ccc(F)c(Br)c1)C(=O)NC[C@@H](O)CO` [Example 204, (R)-2-((4-(N-(3-bromo-4-fluorophenyl)-N′-hydroxycarbamimidoyl)-1,2,5-oxadiazol-3-yl)thio)-N-(2,3-dihydroxypropyl)-2-methylpropanamide], the negative logarithm of the IC50 (pIC50) in assay [1] was 6.84; in assay [2], 7.08.

`C[C@@H](CO)NC(=O)CSc1nonc1/C(=N/O)Nc1ccc(F)c(Br)c1` [Example 205, (S)-2-((4-(N-(3-bromo-4-fluorophenyl)-N′-hydroxycarbamimidoyl)-1,2,5-oxadiazol-3-yl)thio)-N-(1-hydroxypropan-2-yl)acetamide]: the pIC50 in assay [1] was 7.93; in assay [2], 7.91.

In the case of `CC(C)(NC(=O)CSc1nonc1/C(=N/O)Nc1ccc(F)c(Br)c1)C(O)CO` (stereo not drawn) [Example 208, 2-((4-(N-(3-bromo-4-fluorophenyl)-N′-hydroxycarbamimidoyl)-1,2,5-oxadiazol-3-yl)thio)-N-(3,4-dihydroxy-2-methylbutan-2-yl)acetamide], the pIC50 in assay [1] was 7.43; in assay [2], 7.57.

On to `NS(=O)(=O)NCCOc1nonc1/C(=N/O)Nc1ccc(F)c(Br)c1` [Example 212, N-(3-bromo-4-fluorophenyl)-N′-hydroxy-4-(2-(sulfamoylamino)ethoxy)-1,2,5-oxadiazole-3-carboximidamide], for which the pIC50 in assay [1] is 6.95; in assay [2] it was 7.28.

As for `NCCOc1nonc1/C(=N/O)Nc1ccc(F)c(Br)c1` [Example 213, 4-(2-aminoethoxy)-N-(3-bromo-4-fluorophenyl)-N′-hydroxy-1,2,5-oxadiazole-3-carboximidamide], the pIC50 is 6.22 in assay [1] and 6.89 in assay [2].

For `CS(=O)(=O)NCCOc1nonc1/C(=N/O)Nc1ccc(F)c(Br)c1` [Example 214, N-(3-bromo-4-fluorophenyl)-N′-hydroxy-4-(2-(methylsulfonamido)ethoxy)-1,2,5-oxadiazole-3-carboximidamide], the pIC50 in assay [1] is 7.35; in assay [2] it was 6.69.

Usually pIC50 stands for the IC50 on a negative log10 scale, so that one unit is a factor of ten.
